Assay results as given in PubChem BioAssay (NCI).
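Dose response: 5 concentrations. Exposure: 48 h. Format: 96-well plates. Endpoint: linear interpolation; highest concentration if not reached. At the GI50, growth is halved. The concentration for full growth arrest is given as TGI.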

Assays:
Assay in all cases: growth of human tumour cells (NCI), 48 h
EKVX NSCLC = test system: EKVX NSCLC
HCT-116 colon = test system: HCT-116 colon
RPMI-8226 leukemia = test system: RPMI-8226 leukemia
KM12 colon = test system: KM12 colon
A549 NSCLC = test system: A549 NSCLC
MALME-3M melanoma = test system: MALME-3M melanoma
SR leukemia = test system: SR leukemia
SK-MEL-5 melanoma = test system: SK-MEL-5 melanoma
SNB-19 CNS = test system: SNB-19 CNS
HOP-92 NSCLC = test system: HOP-92 NSCLC
NCI-H226 lung = test system: NCI-H226 lung
BT-549 breast = test system: BT-549 breast
HL-60(TB) leukemia = test system: HL-60(TB) leukemia
SK-MEL-2 melanoma = test system: SK-MEL-2 melanoma
M14 melanoma = test system: M14 melanoma
COLO 205 colon = test system: COLO 205 colon
HOP-62 NSCLC = test system: HOP-62 NSCLC
SF-268 CNS = test system: SF-268 CNS
HS 578T breast = test system: HS 578T breast
UACC-257 melanoma = test system: UACC-257 melanoma
OVCAR-5 ovarian = test system: OVCAR-5 ovarian
MCF7 breast = test system: MCF7 breast
K-562 leukemia = test system: K-562 leukemia
RXF 393 renal = test system: RXF 393 renal
PC-3 prostate = test system: PC-3 prostate
OVCAR-3 ovarian = test system: OVCAR-3 ovarian
UACC-62 melanoma = test system: UACC-62 melanoma
LOX IMVI melanoma = test system: LOX IMVI melanoma
MDA-MB-435 = test system: MDA-MB-435
OVCAR-8 ovarian = test system: OVCAR-8 ovarian
HCT-15 colon = test system: HCT-15 colon
IGROV1 ovarian = test system: IGROV1 ovarian
SW-620 colon = test system: SW-620 colon
A498 renal = test system: A498 renal
HT29 colon = test system: HT29 colon
CAKI-1 renal = test system: CAKI-1 renal
T-47D breast = test system: T-47D breast
MOLT-4 leukemia = test system: MOLT-4 leukemia
UO-31 renal = test system: UO-31 renal
U251 CNS = test system: U251 CNS
SK-MEL-28 melanoma = test system: SK-MEL-28 melanoma
SF-295 CNS = test system: SF-295 CNS
NCI-H460 lung = test system: NCI-H460 lung
ACHN renal = test system: ACHN renal
HCC-2998 colon = test system: HCC-2998 colon
786-0 renal = test system: 786-0 renal
NCI/ADR-RES ovarian = test system: NCI/ADR-RES ovarian
SNB-75 CNS = test system: SNB-75 CNS
NCI-H522 lung = test system: NCI-H522 lung
SK-OV-3 ovarian = test system: SK-OV-3 ovarian
SN12C renal = test system: SN12C renal
MDA-MB-231 breast = test system: MDA-MB-231 breast
CCRF-CEM leukemia = test system: CCRF-CEM leukemia
DU-145 prostate = test system: DU-145 prostate
TK-10 renal = test system: TK-10 renal
OVCAR-4 ovarian = test system: OVCAR-4 ovarian
NCI-H23 lung = test system: NCI-H23 lung
SF-539 CNS = test system: SF-539 CNS

`Cc1ccc([N+](=O)[O-])cc1NC(=O)Nc1cccc(F)c1` showed a GI50 (EKVX NSCLC) of 3.68 µM, a TGI (EKVX NSCLC) of over 100 µM and a GI50 (HCT-116 colon) of 3.53 µM. For the same compound, the TGI (HCT-116 colon) was over 100 µM, the GI50 (RPMI-8226 leukemia) was 2820 nM and the TGI (RPMI-8226 leukemia) was 20.7 µM. For the same compound, the GI50 (KM12 colon) was 3.67 µM, the TGI (KM12 colon) was 48.7 µM and the GI50 (A549 NSCLC) was 3.42 µM. It also gave a TGI (A549 NSCLC) of 26.2 µM, a GI50 (MALME-3M melanoma) of 4.66 µM and a TGI (MALME-3M melanoma) of 51.8 µM. The GI50 (SR leukemia) was 5.63 µM, the TGI (SR leukemia) was 64.6 µM and the GI50 (SK-MEL-5 melanoma) was 4.04 µM. For the same compound, the TGI (SK-MEL-5 melanoma) was over 100 µM, the GI50 (SNB-19 CNS) was 6.27 µM and the TGI (SNB-19 CNS) was 97.1 µM. It also gave a GI50 (HOP-92 NSCLC) of 3.46 µM, a TGI (HOP-92 NSCLC) of 15.2 µM and a GI50 (NCI-H226 lung) of 7.54 µM. It also gave a TGI (NCI-H226 lung) of over 100 µM, a GI50 (BT-549 breast) of 45.1 µM and a TGI (BT-549 breast) of over 100 µM. It also gave a GI50 (HL-60(TB) leukemia) of 4.02 µM, a TGI (HL-60(TB) leukemia) of over 100 µM and a GI50 (SK-MEL-2 melanoma) of 8.82 µM. It also gave a TGI (SK-MEL-2 melanoma) of 89.2 µM, a GI50 (M14 melanoma) of 22.1 µM and a TGI (M14 melanoma) of over 100 µM. It also gave a GI50 (COLO 205 colon) of 8.85 µM, a TGI (COLO 205 colon) of over 100 µM and a GI50 (HOP-62 NSCLC) of 9.77 µM. The TGI (HOP-62 NSCLC) was 43 µM, the GI50 (SF-268 CNS) was 6.9 µM and the TGI (SF-268 CNS) was over 100 µM. For the same compound, the GI50 (HS 578T breast) was 7.92 µM, the TGI (HS 578T breast) was 45.3 µM and the GI50 (UACC-257 melanoma) was 4.23 µM. For the same compound, the TGI (UACC-257 melanoma) was over 100 µM, the GI50 (OVCAR-5 ovarian) was 9.82 µM and the TGI (OVCAR-5 ovarian) was over 100 µM. The GI50 (MCF7 breast) was 3.63 µM, the TGI (MCF7 breast) was over 100 µM and the GI50 (K-562 leukemia) was 2630 nM. It also gave a TGI (K-562 leukemia) of 71.4 µM, a GI50 (RXF 393 renal) of 18.4 µM and a TGI (RXF 393 renal) of 61.2 µM. It also gave a GI50 (PC-3 prostate) of 3.44 µM, a TGI (PC-3 prostate) of over 100 µM and a GI50 (OVCAR-3 ovarian) of 3.25 µM. It also gave a TGI (OVCAR-3 ovarian) of 11.7 µM, a GI50 (UACC-62 melanoma) of 4.55 µM and a TGI (UACC-62 melanoma) of over 100 µM. For the same compound, the GI50 (LOX IMVI melanoma) was 5.78 µM, the TGI (LOX IMVI melanoma) was over 100 µM and the GI50 (MDA-MB-435) was 3.8 µM. It also gave a TGI (MDA-MB-435) of over 100 µM, a GI50 (OVCAR-8 ovarian) of 4.24 µM and a TGI (OVCAR-8 ovarian) of over 100 µM. The GI50 (HCT-15 colon) was 3.44 µM, the TGI (HCT-15 colon) was over 100 µM and the GI50 (IGROV1 ovarian) was 5.78 µM. It also gave a TGI (IGROV1 ovarian) of 35.9 µM, a GI50 (SW-620 colon) of 4.66 µM and a TGI (SW-620 colon) of over 100 µM. For the same compound, the GI50 (A498 renal) was 1610 nM, the TGI (A498 renal) was 9.76 µM and the GI50 (HT29 colon) was 4.35 µM. The TGI (HT29 colon) was over 100 µM, the GI50 (CAKI-1 renal) was 3.35 µM and the TGI (CAKI-1 renal) was over 100 µM. It also gave a GI50 (T-47D breast) of 3.45 µM, a TGI (T-47D breast) of over 100 µM and a GI50 (MOLT-4 leukemia) of 3.38 µM. The TGI (MOLT-4 leukemia) was over 100 µM, the GI50 (UO-31 renal) was 3.36 µM and the TGI (UO-31 renal) was 17.6 µM. It also gave a GI50 (U251 CNS) of 3.82 µM, a TGI (U251 CNS) of 18.4 µM and a GI50 (SK-MEL-28 melanoma) of 19.8 µM. It also gave a TGI (SK-MEL-28 melanoma) of over 100 µM, a GI50 (SF-295 CNS) of 2460 nM and a TGI (SF-295 CNS) of 11 µM. The GI50 (NCI-H460 lung) was 3.09 µM, the TGI (NCI-H460 lung) was 16.1 µM and the GI50 (ACHN renal) was 3.78 µM. For the same compound, the TGI (ACHN renal) was 23 µM, the GI50 (HCC-2998 colon) was 4.02 µM and the TGI (HCC-2998 colon) was over 100 µM. It also gave a GI50 (786-0 renal) of 14.1 µM, a TGI (786-0 renal) of over 100 µM and a GI50 (NCI/ADR-RES ovarian) of 3.37 µM. The TGI (NCI/ADR-RES ovarian) was over 100 µM, the GI50 (SNB-75 CNS) was 11.6 µM and the TGI (SNB-75 CNS) was 37.1 µM. The GI50 (NCI-H522 lung) was 2640 nM, the TGI (NCI-H522 lung) was 15.7 µM and the GI50 (SK-OV-3 ovarian) was 13.1 µM. The TGI (SK-OV-3 ovarian) was 49.4 µM, the GI50 (SN12C renal) was 5.18 µM and the TGI (SN12C renal) was over 100 µM. For the same compound, the GI50 (MDA-MB-231 breast) was 13.3 µM, the TGI (MDA-MB-231 breast) was 96.6 µM and the GI50 (CCRF-CEM leukemia) was 3.96 µM. For the same compound, the TGI (CCRF-CEM leukemia) was over 100 µM, the GI50 (DU-145 prostate) was 4.54 µM and the TGI (DU-145 prostate) was 28.4 µM. It also gave a GI50 (TK-10 renal) of 4.19 µM, a TGI (TK-10 renal) of 17.7 µM and a GI50 (OVCAR-4 ovarian) of 3.96 µM. It also gave a TGI (OVCAR-4 ovarian) of 51.9 µM, a GI50 (NCI-H23 lung) of 2610 nM and a TGI (NCI-H23 lung) of over 100 µM. It also gave a GI50 (SF-539 CNS) of 7.2 µM and a TGI (SF-539 CNS) of 33.6 µM.
